Results from patent publication US20100291168A1, “ANTIMICROBIAL FORMULATIONS COMPRISING A COMBINATION OF A PYRIDINE THIOL AND A BIS-QUINOLINIUM SALT” (priority 2007, published 2010).

What was measured:
P. acnes PRP-002 = assay type: cell-based, Propionibacterium acnes; conditions: P. acnes PRP-002 (Tet/MLS); 50 μg DC or 200 μg ZP per disc
Description: (§1) Some of these strains have known antibiotic resistance.
(§2) All the experiments were conducted in triplicate.

P. acnes PRP-053 = assay type: cell-based, Propionibacterium acnes; conditions: P. acnes PRP-053 (Tet/MLS); 50 μg DC or 200 μg ZP per disc
Description: as §1, §2

P. acnes PRP-059 = assay type: cell-based, Propionibacterium acnes; conditions: P. acnes PRP-059 (MLS); 50 μg DC or 200 μg ZP per disc
Description: as §1, §2

P. acnes PRP-101 = assay type: cell-based, Propionibacterium acnes; conditions: P. acnes PRP-101 (Tet/MLS); 50 μg DC or 200 μg ZP per disc
Description: as §1, §2

P. acnes PRP-102 = assay type: cell-based, Propionibacterium acnes; conditions: P. acnes PRP-102 (Tet/MLS); 50 μg DC or 200 μg ZP per disc
Description: as §1, §2

P. acnes PRP-023 = assay type: cell-based, Propionibacterium acnes; conditions: P. acnes PRP-023 (MLSK); 50 μg DC or 200 μg ZP per disc
Description: as §1, §2

P. acnes PRP-017 = assay type: cell-based, Propionibacterium acnes; conditions: P. acnes PRP-017 (MLS); 50 μg DC or 200 μg ZP per disc
Description: as §1, §2

P. acnes PRP-004 = assay type: cell-based, Propionibacterium acnes; conditions: P. acnes PRP-004 (Tet); 50 μg DC or 200 μg ZP per disc
Description: as §1, §2

P. acnes PRP-003 = assay type: cell-based, Propionibacterium acnes; conditions: P. acnes PRP-003 (Tet); 50 μg DC or 200 μg ZP per disc
Description: as §1, §2

P. acnes PRP-026 = assay type: cell-based, Propionibacterium acnes; conditions: P. acnes PRP-026 (MLS); 50 μg DC or 200 μg ZP per disc
Description: as §1, §2

P. acnes PRP-008 = assay type: cell-based, Propionibacterium acnes; conditions: P. acnes PRP-008 (Clin); 50 μg DC or 200 μg ZP per disc
Description: as §1, §2

P. acnes PRP-068 = assay type: cell-based, Propionibacterium acnes; conditions: P. acnes PRP-068 (Ery); 50 μg DC or 200 μg ZP per disc
Description: as §1, §2

P. granulosum PRP-055 = experiment: (S)DDA; assay type: cell-based, Propionibacterium granulosum; conditions: P. granulosum PRP-055 (resistance None); 50 μg DC or 200 μg ZP per disc
Description: as §1, §2

P. granulosum NCTC 11865 = experiment: (S)DDA; assay type: cell-based, Propionibacterium granulosum; conditions: P. granulosum NCTC 11865 (resistance None); 50 μg DC or 200 μg ZP per disc
Description: as §1, §2

P. acnes PRP-010 = assay type: cell-based, Propionibacterium acnes; conditions: P. acnes PRP-010 (MLSK); 50 μg DC or 200 μg ZP per disc
Description: (§3) Other propionibacterial strains were also tested, as described in Example 4 below. These included certain antibiotic resistant propionibacteria, such as the two P. acnes strains designated PRP-010 and PRP-039 which are resistant respectively to macrolides-lincosamides-streptogramins-ketolides (MLSK) and to macrolides-lincosamides-streptogramins (MLS) and tetracycline—in other words, PRP-010 is resistant to erythromycin and clindamycin, and PRP-039 to erythromycin, clindamycin and tetracycline.
as §1, §2

P. acnes PRP-039 = assay type: cell-based, Propionibacterium acnes; conditions: P. acnes PRP-039 (Tet/MLS); 50 μg DC or 200 μg ZP per disc
Description: as §3, §1, §2

[1] = tested on: Cor. mucifaciens ATCC 700355; experiment: (S)DDA; assay type: cell-based, Corynebacterium mucifaciens
Description: (§4) The activity of a DC/ZP combination was determined, using (S)DDAs, against two further test micro-organisms, namely C. difficile ATCC 7000057 and Cor. mucifaciens ATCC 700355. A DI/ZP combination was also tested against Cor. mucifaciens.
(§5) In these tests, 50 μg (for C. difficile) or 200 μg (for Cor. mucifaciens) of the DC was loaded onto each disc. The DI and the ZP were both loaded at 200 μg per disc. All the (S)DDA experiments were conducted in triplicate.

P. granulosum PRP-006 = assay type: cell-based, Propionibacterium granulosum; conditions: P. granulosum PRP-006 (MLS); 50 μg DC or 200 μg ZP per disc
Description: as §1, §2

P. granulosum PRP-005 = assay type: cell-based, Propionibacterium granulosum; conditions: P. granulosum PRP-005 (MLSK); 50 μg DC or 200 μg ZP per disc
Description: as §1, §2

P. granulosum PRP-021 = assay type: cell-based, Propionibacterium granulosum; conditions: P. granulosum PRP-021 (MLS); 50 μg DC or 200 μg ZP per disc
Description: as §1, §2

P. granulosum PRP-044 = assay type: cell-based, Propionibacterium granulosum; conditions: P. granulosum PRP-044 (MLS); 50 μg DC or 200 μg ZP per disc
Description: as §1, §2

P. granulosum PRP-019 = assay type: cell-based, Propionibacterium granulosum; conditions: P. granulosum PRP-019 (MLSK); 50 μg DC or 200 μg ZP per disc
Description: as §1, §2

P. granulosum PRP-043 = assay type: cell-based, Propionibacterium granulosum; conditions: P. granulosum PRP-043 (MLS); 50 μg DC or 200 μg ZP per disc
Description: as §1, §2

P. acnes PRP-007 = experiment: (S)DDA; assay type: cell-based, Propionibacterium acnes; conditions: P. acnes PRP-007 (Clin); 50 μg DC or 200 μg ZP per disc
Description: as §1, §2

P. acnes PRP-046 = experiment: (S)DDA; assay type: cell-based, Propionibacterium acnes; conditions: P. acnes PRP-046 (resistance None); 50 μg DC or 200 μg ZP per disc
Description: as §1, §2

P. acnes NCTC 737 [2] = experiment: Disc diffusion / synergy disc diffusion assay ((S)DDA); assay type: cell-based, Propionibacterium acnes
Description: (§6) The propionibacteria were cultured and maintained on Wilkins-Chalgren Anaerobe Medium (agar and broth) at pH 6.0; all cultures were incubated anaerobically at 37° C. for 72 hours.
(c) Disc Diffusion Assay (DDA)
This is an internationally recognised standard method for qualitatively assessing the antimicrobial activity of a compound.
A sterile paper disc was impregnated with a sample of the test compound in a suitable solvent and 30 minutes allowed for the solvents to evaporate (where possible). The disc was then placed on an agar plate onto which the test micro-organism had been inoculated. The plate was then incubated under the conditions described above, following which it was examined visually for signs of microbial growth. […] The diameter of this zone of “inhibition” was measured using a ProtoCOL™ automated zone sizer (Synbiosis, Cambridge, UK).
(d) Synergy Disc Diffusion Assay (SDDA)
This is a variation on the DDA method, in which two compounds are tested together for their combined antimicrobial activity.
Two test compounds A and B were placed on a single paper disc and the above described DDA procedure repeated.
Mixtures of the two test compounds were then subjected to SDDA assays as described above.
For the (S)DDA experiments, 50 μg of the DC was loaded onto each disc, and 200 μg of the ZP. All the (S)DDA experiments were conducted in triplicate.
For the (S)DDA experiments, 50 μg of the DI was loaded onto each disc, and 200 μg of the ZP. The DI and ZP were both dissolved in DMSO.
All the (S)DDA experiments were conducted in triplicate.

[3] = tested on: C. difficile ATCC 7000057; experiment: (S)DDA; assay type: cell-based, Clostridium difficile; conditions: 50 μg DC or 200 μg ZP per disc
Description: as §4, §5

P. acnes NCTC 737 [4] = experiment: Minimum Bactericidal Concentration (MBC) assay; assay type: cell-based, Propionibacterium acnes; conditions: for MBC: sub-culture after MIC assay
Description: as §6
(b) Minimum Bactericidal Concentration (MBC) Assay
This assay, normally carried out after an MIC assay, determines the minimum concentration of a compound that is lethal to the micro-organism being tested.
These samples were then individually sub-cultured on antibiotic-free agar medium, under the incubation conditions described above. Following incubation they were examined visually for bacterial growth.
The ratio of MIC to MBC should ideally be as close to 1 as possible.
(§7) The following experiments all used P. acnes NCTC 737 as the test organism.
(§8) MIC, MBC and DDA assays, as described above, were carried out using the test compounds (a) dequalinium chloride (DC), dissolved in ethanol and (b) zinc pyrithione (ZP), dissolved in DMSO. Both compounds were sourced from Sigma-Aldrich, UK.
(§9) The general method of Example 1 was repeated using another bis-quinolinium salt, dequalinium iodide (DI), which was also obtained from Sigma-Aldrich, UK. This compound was tested against P. acnes NCTC 737, both alone and in combination with ZP.

P. acnes NCTC 737 [5] = experiment: Minimum Inhibitory Concentration (MIC) assay; assay type: cell-based, Propionibacterium acnes; conditions: for MIC: anaerobic, 37° C., 72 hours
Description: as §6
(a) Minimum Inhibitory Concentration (MIC) Assay
This is a standard international method for quantitatively assessing the antimicrobial activity of a compound in a liquid medium. The method used a sterile 96-well microtitre plate, capable of holding about 200 μl of liquid per well. The wells contained liquid culture medium and ranges of decreasing concentrations of the relevant test compound in doubling dilutions (eg, 1000, 500, 250, 125 . . . μg/ml, etc. down to 0.49 μg/ml). The culture medium was as described above.
The wells were inoculated with a liquid suspension of freshly grown micro-organism and incubated under the conditions described above. After incubation, the microtitre plate was examined visually (with the aid of a light box) for cloudiness in each well, which would indicate microbial growth. The MIC value was recorded as the lowest concentration of test compound required to inhibit microbial growth, ie, the lowest concentration for which the liquid in the well remained clear.
The assays were conducted in duplicate and included both negative (culture medium with no micro-organisms) and positive (culture medium plus diluting solvent plus micro-organism) controls.
as §7, §8, §9

[6] = Table 6, 200 μg DC or 200 μg ZP per disc
[7] = Example 1, zone of inhibition diameter, 50 μg DC or 200 μg ZP per disc
[8] = Table 7, 200 μg DI or 200 μg ZP per disc
[9] = Example 3, zone of inhibition diameter, 50 μg DI or 200 μg ZP per disc, both in DMSO

| Compound | DDA (P. acnes PRP-002) | DDA (P. acnes PRP-053) | DDA (P. acnes PRP-059) | DDA (P. acnes PRP-101) | DDA (P. acnes PRP-102) | DDA (P. acnes PRP-023) | DDA (P. acnes PRP-017) | DDA (P. acnes PRP-004) | DDA (P. acnes PRP-003) | DDA (P. acnes PRP-026) | DDA (P. acnes PRP-008) | DDA (P. acnes PRP-068) | DDA (P. granulosum PRP-055) | DDA (P. granulosum NCTC 11865) | DDA (P. acnes PRP-010) | DDA (P. acnes PRP-039) | MIC/MBC ratio (P. acnes NCTC 737 [4]) | MBC (P. acnes NCTC 737 [4]) | activity of compound alone (MIC, MBC, DDA data) (P. acnes NCTC 737 [5]) | MIC (P. acnes NCTC 737 [5]) | also measured |
| --- | --- | --- | --- | --- | --- | --- | --- | --- | --- | --- | --- | --- | --- | --- | --- | --- | --- | --- | --- | --- | --- |
| Cc1cc(N)c2ccccc2[n+]1CCCCCCCCCC[n+]1c(C)cc(N)c2ccccc21.[Cl-].[Cl-] [DC, dequalinium chloride] | 20.04 mm | 21.38 mm | 19.42 mm | 16.96 mm | 21.68 mm | 19.32 mm | 17.27 mm | 20.45 mm | 21.27 mm | 19.01 mm | 19.73 mm | 20.45 mm | 29.08 mm | 14.08 mm | 17.37 mm | 28.98 mm | 0.5 | 15.6 µg/mL | active | 7.8 µg/mL | DDA [1, 6]: 17.2 mm; DDA (P. granulosum PRP-006): 26.82 mm; DDA (P. granulosum PRP-005): 20.55 mm; DDA (P. granulosum PRP-021): 27.95 mm; DDA (P. granulosum PRP-044): 17.37 mm; DDA (P. granulosum PRP-019): 18.91 mm; DDA (P. granulosum PRP-043): 23.02 mm; DDA (P. acnes PRP-007): 18.91 mm; DDA (P. acnes PRP-046): 21.38 mm; DDA (P. acnes NCTC 737 [2]; [7]): 16.68 mm; DDA [3]: 0.0 mm |
| Cc1cc(N)c2ccccc2[n+]1CCCCCCCCCC[n+]1c(C)cc(N)c2ccccc21.[I-].[I-] [DI, dequalinium iodide] |  |  |  |  |  |  |  |  |  |  |  |  |  |  |  |  | 0.03 | 125 µg/mL | active | 3.9 µg/mL | DDA [1, 8]: 22.93 mm; DDA (P. acnes NCTC 737 [2]; [9]): 21.92 mm |
| zinc pyrithione [ZP] | 25.79 mm | 29.91 mm | 16.34 mm | 14.39 mm | 16.85 mm | 17.37 mm | 19.01 mm | 12.43 mm | 26.82 mm | 16.24 mm | 14.90 mm | 14.90 mm | 50.05 mm | 23.95 mm | 20.96 mm | 29.70 mm | 0.125 | 7.8 µg/mL | active | 0.98 µg/mL | DDA [1, 6]: 28.14 mm; DDA [1, 8]: 28.14 mm; DDA (P. granulosum PRP-006): 32.58 mm; DDA (P. granulosum PRP-005): 20.04 mm; DDA (P. granulosum PRP-021): 29.70 mm; DDA (P. granulosum PRP-044): 18.50 mm; DDA (P. granulosum PRP-019): 19.73 mm; DDA (P. granulosum PRP-043): 43.37 mm; DDA (P. acnes PRP-007): 10.79 mm; DDA (P. acnes PRP-046): 35.56 mm; DDA (P. acnes NCTC 737 [2]; [7]): 15.85 mm; DDA (P. acnes NCTC 737 [2]; [9]): 46.44 mm; DDA [3]: 20.31 mm |
